Data taken from patent publication US7759345B2, “Antitumoral derivatives of ET-743” (priority 2001, dated 2010).
Where two headings read alike, the source gives them in different places.

Experiments:
A-549 = assay: Inhibition of cells growth by colorimetric assay (SRB), A-549; format: cell-based
Procedure: (§1) 2°.—Inhibition of Cells Growth by Colorimetric Assay.
(§2) A colorimetric type of assay, using sulforhodamine B (SRB) reaction has been adapted for a quantitative measurement of cell growth and viability [following the technique described by Philip Skehan, et al. (1990), New colorimetric cytotoxicity assay for anticancer drug screening, J. Natl. Cancer Inst., 82:1107-1112]
(§3) This form of the assay employs 96 well cell culture microplates of 9 mm diameter (Faircloth, 1988; Mosmann, 1983). Most of the cell lines are obtained from American Type Culture Collection (ATCC) derived from different human cancer types.
(§4) Cells are maintained in RPMI 1640 10% FBS, supplemented with 0.1 g/l penicillin and 0.1 g/l streptomycin sulfate and then incubated at 37° C., 5% CO2 and 98% humidity. For the experiments, cells were harvested from subconfluent cultures using trypsin and resuspended in fresh medium before plating.
(§5) Cells are seeded in 96 well microtiter plates, at 5×10^3 cells per well in aliquots of 195 μl medium, and they are allowed to attach to the plate surface by growing in drug free medium for 18 hours. Afterward, samples are added in aliquots of 5 μl in a ranging from 10 to 10^−8 μg/ml, dissolved in DMSO/EtOH/PBS (0.5:0.5:99). After 48 hours exposure, the antitumor effect are measured by the SRB methodology: cells are fixed by adding 50 μl of cold 50% (wt/vol) trichloroacetic acid (TCA) and incubating for 60 minutes at 4° C. Plates are washed with deionized water and dried. One hundred μl of SRB solution (0.4% wt/vol in 1% acetic acid) is added to each microtiter well and incubated for 10 minutes at room temperature. Unbound SRB is removed by washing with 1% acetic acid. Plates are air dried and bound stain is solubilized with Tris buffer. Optical densities are read on a automated spectrophotometric plate reader at a single wavelength of 490 nm.
(§6) The values for mean+/−SD of data from triplicate wells are calculated. Some parameters for cellular responses can be calculated: GI=growth inhibition, TGI=total growth inhibition (cytostatic effect) and LC=cell killing (cytotoxic effect).
(§7) Obtained results may predict the usefulness of a certain drug as a potential cancer treatment. For this technique, compounds which show GI50 values smaller than 10 μg/ml are selected to continue with further studies. GI50's data allow to predict that not only could a drug be cystostatic, but also it could have a potential in terms of tumor reduction.

HT-29 = assay: Inhibition of cells growth by colorimetric assay (SRB), HT-29; format: cell-based
Procedure: as §1, §2, §3, §4, §5, §6, §7

[1] = Homo sapiens, A549, 48 h, A-549, SRB, 48 hours exposure, read-out: GI50 A-549
[2] = Homo sapiens, A549, 48 h, read-out: LC50 A-549, A-549, SRB, 48 hours exposure
[3] = Homo sapiens, HT-29, 48 h, HT-29, SRB, 48 hours exposure, read-out: GI50 HT-29
[4] = Homo sapiens, HT-29, 48 h, read-out: LC50 HT-29, HT-29, SRB, 48 hours exposure
[5] = Homo sapiens, A549, 48 h, read-out: A-549 GI50
[6] = Homo sapiens, A549, 48 h, read-out: A-549 LC50, A-549, SRB, 48 hours exposure
[7] = Homo sapiens, HT-29, 48 h, read-out: HT-29 GI50
[8] = Homo sapiens, HT-29, 48 h, read-out: HT-29 LC50, HT-29, SRB, 48 hours exposure
[9] = Homo sapiens, A549, 48 h, A-549, SRB, 48 hours exposure, read-out: A-549 GI50
[10] = Homo sapiens, HT-29, 48 h, HT-29, SRB, 48 hours exposure, read-out: HT-29 GI50

Row | Structure (SMILES) | TGI A-549 (A-549; A-549, SRB, 48 hours exposure) | GI50 (A-549; [1]) [nM] | LC50 (concentration for 50% cell killing) (A-549; [2]) [nM] | TGI HT-29 (HT-29; HT-29, SRB, 48 hours exposure) | GI50 (HT-29; [3]) [nM] | LC50 (concentration for 50% cell killing) (HT-29; [4]) [nM] | A-549 TGI (A-549; A-549, SRB, 48 hours exposure) | HT-29 TGI (HT-29; HT-29, SRB, 48 hours exposure) | other results
1 | COc1cc2c(cc1OC(=O)C(F)(F)C(F)(F)C(F)(F)F)CCN[C@]21CS[C@@H]2c3c(OC(C)=O)c(C)c4c(c3[C@H](COC1=O)N1C2[C@H]2c3c(cc(C)c(OC)c3O)C[C@@H]([C@@H]1C#N)N2C)OCO4 (stereo partly drawn) [Compound 13] | 3.24E-09 | 1.08 | 8.65 | 3.24E-10 | 0.324 | 10.8 |  |  | 
2 | COc1cc2c(cc1OC(=O)c1cc3ccccc3oc1=O)CCN[C@]21CS[C@@H]2c3c(OC(C)=O)c(C)c4c(c3[C@H](COC1=O)N1C2[C@H]2c3c(cc(C)c(OC)c3O)C[C@@H]([C@@H]1C#N)N2C)OCO4 (stereo partly drawn) [Compound 21] | 1.06E-08 | 3.34 | 10600 | 1.06E-07 | 5.31 | 10600 |  |  | 
3 | C=COC(=O)Oc1cc2c(cc1OC)[C@@]1(CS[C@@H]3c4c(OC(C)=O)c(C)c5c(c4[C@H](COC1=O)N1C3[C@H]3c4c(cc(C)c(OC)c4O)C[C@@H]([C@@H]1C#N)N3C)OCO5)NCC2 (stereo partly drawn) [Compound 29] | 4.32E-09 | 2.16 | 10.8 | 2.16E-09 | 2.16 | 1080 |  |  | 
4 | C=COC(=O)Oc1cc2c(cc1OC)[C@@]1(CS[C@@H]3c4c(OC(C)=O)c(C)c5c(c4[C@H](COC1=O)N1C3[C@H]3c4c(cc(C)c(OC)c4OC(=O)OC=C)C[C@@H]([C@@H]1C#N)N3C)OCO5)NCC2 (stereo partly drawn) [Compound 30] | 5.49E-08 | 32.9 | 3290 | 8.78E-08 | 87.8 | 11000 |  |  | 
5 | C=COC(=O)Oc1cc2c(cc1OC)[C@@]1(CS[C@@H]3c4c(OC(C)=O)c(C)c5c(c4[C@H](COC1=O)N1C3[C@H]3c4c(cc(C)c(OC)c4OC(=O)OC=C)C[C@@H]([C@@H]1C#N)N3C)OCO5)N(C(=O)OC=C)CC2 (stereo partly drawn) [Compound 31] | 9.17E-08 | 40.8 | 1020 | 8.15E-08 | 81.5 | 10200 |  |  | 
6 | C=COC(=O)Oc1cc2c(cc1OC)[C@@]1(CS[C@@H]3c4c(OC(C)=O)c(C)c5c(c4[C@H](COC1=O)N1C3[C@H]3c4c(cc(C)c(OC)c4O)C[C@@H]([C@@H]1C#N)N3C)OCO5)N(C(=O)OC=C)CC2 (stereo partly drawn) [Compound 32] | 6.59E-09 | 2.2 | 11 | 6.60E-09 | 1.1 | 9.88 |  |  | 
7 | C=COC(=O)N1CCc2cc(O)c(OC)cc2[C@@]12CS[C@@H]1c3c(OC(C)=O)c(C)c4c(c3[C@H](COC2=O)N2C1[C@H]1c3c(cc(C)c(OC)c3O)C[C@@H]([C@@H]2C#N)N1C)OCO4 (stereo partly drawn) [Compound 33] | 2.50E-08 | 4.37 | 12700 | 1.25E-07 | 34.2 | 12500 |  |  | 
8 | COc1cc2c(cc1OC)[C@@]1(CS[C@@H]3c4c(OC(C)=O)c(C)c5c(c4[C@H](COC1=O)N1C3[C@H]3c4c(cc(C)c(OC)c4O)C[C@@H]([C@@H]1C#N)N3C)OCO5)NCC2 (stereo partly drawn) [Compound 34] | 2.84E-09 | 0.764 | 9.06 | 1.29E-08 | 0.809 | 12700 |  |  | 
9 | COc1cc2c(cc1OC)[C@@]1(CS[C@@H]3c4c(OC(C)=O)c(C)c5c(c4[C@H](COC1=O)N1C3[C@H]3c4c(cc(C)c(OC)c4OC)C[C@@H]([C@@H]1C#N)N3C)OCO5)NCC2 (stereo partly drawn) [Compound 35] | 7.22E-08 | 5.68 | 2150 | 1.25E-08 | 5.41 | 12500 |  |  | 
10 | COc1cc2c(cc1O)CCN[C@]21CS[C@@H]2c3c(OC(C)=O)c(C)c4c(c3[C@H](COC1=O)N1C2[C@H]2c3c(cc(C)c(OC)c3OC)C[C@@H]([C@@H]1C#N)N2C)OCO4 (stereo partly drawn) [Compound 36] | 1.03E-07 | 6.26 | 4140 | 2.55E-08 | 5.67 | 12700 |  |  | 
11 | C=COC(=O)Oc1c(C)c2c(c3c1[C@H]1SC[C@]4(NCCc5cc(OC(=O)OC(C)(C)C)c(OC)cc54)C(=O)OC[C@@H]3N3C1[C@H]1c4c(cc(C)c(OC)c4O)C[C@@H]([C@@H]3C#N)N1C)OCO2 (stereo partly drawn) [Compound 118] |  |  |  |  |  |  | 8.90E-08 | 7.79E-09 | GI50 (A-549; [5]): 3.34 nM; LC50 (concentration for 50% cell killing) (A-549; [6]): 2220 nM; GI50 (HT-29; [7]): 7.79 nM; LC50 (concentration for 50% cell killing) (HT-29; [8]): 11100 nM
12 | COc1cc2c(cc1OC(=O)OC(C)(C)C)CCNC21CSC2c3c(OC(=O)CCCCC4SCC5NC(=O)NC54)c(C)c4c(c3C(COC1=O)N1C(C#N)C3Cc5cc(C)c(OC)c(O)c5C(C21)N3C)OCO4 (stereo not drawn) [Compound 123] |  |  |  |  |  |  | 2.09E-08 | 3.14E-09 | GI50 (A-549; A-549, SRB, 48 hours exposure, read-out: A-549 GI50): 7.33 nM; LC50 (50% lethal concentration) (A-549; A-549, SRB, 48 hours exposure, read-out: A-549 LC50): 73.3 nM; GI50 (HT-29; HT-29, SRB, 48 hours exposure, read-out: HT-29 GI50): 3.14 nM; CC50 (HT-29; HT-29, SRB, 48 hours exposure, read-out: HT-29 LC50): 31.4 nM
13 | COc1cc2c(cc1OC(=O)OC(C)(C)C)CCN[C@]21CS[C@@H]2c3c(OC(=O)[C@H](C)NC(=O)OC(C)(C)C)c(C)c4c(c3[C@H](COC1=O)N1C2[C@H]2c3c(cc(C)c(OC)c3O)C[C@@H]([C@@H]1C#N)N2C)OCO4 (stereo partly drawn) [Compound 125] |  |  |  |  |  |  | 3.00E-09 | 2.00E-10 | GI50 (A-549; [9]): 1 nM; LC50 (concentration for 50% cell killing) (A-549; [6]): 8 nM; GI50 (HT-29; [10]): 0.2 nM; LC50 (concentration for 50% cell killing) (HT-29; [8]): 3 nM
14 | COc1cc2c(cc1O)CCN[C@]21CS[C@@H]2c3c(OC(=O)C(F)(F)C(F)(F)C(F)(F)F)c(C)c4c(c3[C@H](COC1=O)N1C2[C@H]2c3c(cc(C)c(OC)c3O)C[C@@H]([C@@H]1C#N)N2C)OCO4 (stereo partly drawn) [Compound 143] |  |  |  |  |  |  | 4.32E-08 | 1.08E-08 | GI50 (A-549; [5]): 21.6 nM; LC50 (concentration for 50% cell killing) (A-549; [6]): 108 nM; GI50 (HT-29; [7]): 10.8 nM; LC50 (concentration for 50% cell killing) (HT-29; [8]): 10800 nM
15 | COc1cc2c(cc1O)CCN[C@]21CS[C@@H]2c3c(OC(=O)CCCC[C@@H]4SCC5NC(=O)NC54)c(C)c4c(c3[C@H](COC1=O)N1C2[C@H]2c3c(cc(C)c(OC)c3O)C[C@@H]([C@@H]1C#N)N2C)OCO4 (stereo partly drawn) [Compound 147] |  |  |  |  |  |  | 6.84E-08 | 1.05E-07 | GI50 (A-549; [9]): 32.6 nM; LC50 (concentration for 50% cell killing) (A-549; [6]): 1050 nM; GI50 (HT-29; [10]): 19.7 nM; LC50 (concentration for 50% cell killing) (HT-29; [8]): 10500 nM
16 | COc1cc2c(cc1O)CCN[C@]21CS[C@@H]2c3c(OC(=O)CCCC[C@@H]4SCC5NC(=O)NC54)c(C)c4c(c3[C@H](COC1=O)N1C2[C@H]2c3c(cc(C)c(OC)c3OC(=O)CCCCC3SCC5NC(=O)NC53)C[C@@H]([C@@H]1C#N)N2C)OCO4 (stereo partly drawn) [Compound 148] |  |  |  |  |  |  | 5.19E-07 | 3.32E-07 | GI50 (A-549; [9]): 255 nM; LC50 (concentration for 50% cell killing) (A-549; [6]): 2880 nM; GI50 (HT-29; [10]): 140 nM; LC50 (concentration for 50% cell killing) (HT-29; [8]): 786 nM
17 | CCCC(=O)Oc1cc2c(cc1OC)[C@@]1(CS[C@@H]3c4c(OC(C)=O)c(C)c5c(c4[C@H](COC1=O)N1C3[C@H]3c4c(cc(C)c(OC)c4OC(=O)CCC)C[C@@H]([C@@H]1C#N)N3C(=O)OC(C)(C)C)OCO5)NCC2 (stereo partly drawn) [Compound 193] |  |  |  |  |  |  |  |  | GI50 (A-549; [5]): 0.401 nM; LC50 (concentration for 50% cell killing) (A-549; Homo sapiens, A549, 48 h, read-out: A-549 LC50, SRB assay, 48 hours exposure): 100 nM; A-549 TGI (A-549; SRB assay, 48 hours exposure): 4.01E-09; GI50 (HT-29; [7]): 0.1 nM; LC50 (concentration for 50% cell killing) (HT-29; Homo sapiens, HT-29, 48 h, read-out: HT-29 LC50, SRB assay, 48 hours exposure): 20100 nM; HT-29 TGI (HT-29; SRB assay, 48 hours exposure): 2.01E-08
